The results in this text go back to article PMC7210949, “Flexibility of intrinsically disordered degrons in AUX/IAA proteins reinforces auxin co-receptor assemblies” (Nature Communications, 2020).

The structures appear in SMILES notation.

Experiment in all cases: [3H]IAA saturation radioligand binding
The target of experiment [1] is T1, ASK1·TIR1·IAA7 (Arabidopsis thaliana, UniProt Q38825+Q570C0).
T1 construct: full-length IAA7 as GST fusion from E. coli, GST kept; with SKP1-like protein 1A
T1 sequence (Q570C0 1-594): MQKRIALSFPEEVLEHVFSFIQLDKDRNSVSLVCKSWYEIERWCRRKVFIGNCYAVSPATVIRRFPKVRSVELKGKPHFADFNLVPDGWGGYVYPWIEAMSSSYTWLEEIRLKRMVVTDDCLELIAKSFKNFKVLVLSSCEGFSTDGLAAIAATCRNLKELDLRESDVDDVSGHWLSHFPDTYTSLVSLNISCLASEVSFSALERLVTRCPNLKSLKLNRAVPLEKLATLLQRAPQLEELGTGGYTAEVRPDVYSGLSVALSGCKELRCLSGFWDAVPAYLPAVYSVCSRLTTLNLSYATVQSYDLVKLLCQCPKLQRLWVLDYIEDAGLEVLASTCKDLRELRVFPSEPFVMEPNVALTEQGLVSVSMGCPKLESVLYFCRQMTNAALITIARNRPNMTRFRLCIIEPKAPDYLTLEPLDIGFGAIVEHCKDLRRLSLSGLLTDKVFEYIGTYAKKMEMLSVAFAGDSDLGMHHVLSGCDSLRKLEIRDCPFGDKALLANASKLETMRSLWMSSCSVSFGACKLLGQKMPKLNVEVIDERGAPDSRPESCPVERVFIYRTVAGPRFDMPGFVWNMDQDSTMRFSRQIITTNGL
T1 sequence (Q38825 1-243): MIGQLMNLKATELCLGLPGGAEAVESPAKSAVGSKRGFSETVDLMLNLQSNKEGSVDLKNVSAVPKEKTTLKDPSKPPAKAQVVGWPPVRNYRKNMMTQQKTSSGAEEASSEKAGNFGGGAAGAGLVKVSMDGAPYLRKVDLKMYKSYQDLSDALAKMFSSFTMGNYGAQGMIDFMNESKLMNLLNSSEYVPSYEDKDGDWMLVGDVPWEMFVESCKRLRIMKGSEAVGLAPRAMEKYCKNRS
T1 sequence (Q39255 1-160 partner): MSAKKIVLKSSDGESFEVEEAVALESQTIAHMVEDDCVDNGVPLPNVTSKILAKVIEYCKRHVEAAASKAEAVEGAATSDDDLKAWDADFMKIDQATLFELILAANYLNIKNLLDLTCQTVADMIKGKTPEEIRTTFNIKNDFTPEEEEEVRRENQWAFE

Experiment [2] addresses T2, TIR1·IAA (7-7-7-7-12).
T2 construct: IAA7 with its PB1 domain replaced by that of IAA12 (one seamless polypeptide: DI, linker, core degron, degron tail from IAA7); GST fusion from E. coli; with SKP1-like protein 1A
Also on record: species or system Arabidopsis thaliana. The settings on record: labelled compound; 0.01 µM ASK1·TIR1, 0.3 µM GST-AUX/IAA chimera, on ice 1 h; one-site fit; n = 2.

For experiment [3], the target named is T3, TIR1·IAA (12-12-12-12-7).
T3 construct: IAA12 with its PB1 domain replaced by that of IAA7 (one seamless polypeptide: DI, linker, core degron, degron tail from IAA12); GST fusion from E. coli; with SKP1-like protein 1A
Also on record: species or system Arabidopsis thaliana. To be noted: labelled compound; 0.01 µM ASK1·TIR1, 0.3 µM GST-AUX/IAA chimera, on ice 1 h; one-site fit; n = 3.

Experiment [4] deals with T4, ASK1·TIR1·IAA12 (Arabidopsis thaliana, UniProt Q38830+Q570C0).
T4 construct: full-length IAA12 as GST fusion from E. coli, GST kept; with SKP1-like protein 1A
T4 sequence (Q570C0 1-594): T1 sequence (Q570C0 1-594)
T4 sequence (Q38830 1-239): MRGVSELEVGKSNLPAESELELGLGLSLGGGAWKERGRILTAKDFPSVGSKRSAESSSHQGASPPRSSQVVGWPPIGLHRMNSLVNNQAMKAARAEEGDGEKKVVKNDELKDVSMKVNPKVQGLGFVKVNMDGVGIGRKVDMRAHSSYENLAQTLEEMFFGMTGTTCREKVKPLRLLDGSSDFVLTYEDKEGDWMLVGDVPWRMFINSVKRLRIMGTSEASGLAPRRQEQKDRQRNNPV
T4 sequence (Q39255 1-160 partner): T1 sequence (Q39255 1-160 partner)

For experiment [5], the target named is T5, TIR1·IAA (7-7-7-12-7).
T5 construct: IAA7 with its degron tail replaced by that of IAA12 (one seamless polypeptide: DI, linker, core degron, PB1 from IAA7); GST fusion from E. coli; with SKP1-like protein 1A
Also on record: species or system Arabidopsis thaliana. To be noted: labelled compound; 0.01 µM ASK1·TIR1, 0.3 µM GST-AUX/IAA chimera, on ice 1 h; one-site fit; n = 2.

Experiment [6] concerns the target T6, TIR1·IAA (12-12-12-7-12).
T6 construct: IAA12 with its degron tail replaced by that of IAA7 (one seamless polypeptide: DI, linker, core degron, PB1 from IAA12); GST fusion from E. coli; with SKP1-like protein 1A
Further details: species or system Arabidopsis thaliana. The settings on record: labelled compound; 0.01 µM ASK1·TIR1, 0.3 µM GST-AUX/IAA chimera, on ice 1 h; one-site fit; n = 3.

The term Kd denotes the free concentration of one partner at which half of the binding sites on the other are occupied at equilibrium, for simple one-to-one binding. Low readings indicate higher affinity, high ones lower affinity. As to `O=C(O)Cc1c[nH]c2ccccc12` [[3H]IAA], the Kd is ~20 nM in experiment [1]; ~43 nM in experiment [2]; ~133 nM in experiment [3]; ~226 nM in experiment [4]; ~57 nM in experiment [5]; ~79 nM in experiment [6].
